Assay results reported in patent US10798941B2, “Microbiocidal oxadiazole derivatives” (SYNGENTA PARTICIPATIONS AG, priority 2016, dated 2020).

Columns and labels:
[1] = system: Puccinia recondita f. Sp. Tritici; experiment: Puccinia recondita f. sp. tritici / wheat / leaf disc curative (brown rust); assay type: in vivo; details: foliar, 144 h, 200 ppm in the applied formulation, wheat leaf segments cv. Kanzler, applied 1 day after inoculation, assessed 6 to 8 days after application, vs untreated, read-out: disease control
Summary of the method: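 Read-out is percent disease control relative to untreated segments, assessed 6 to 8 days after treatment once check disease is adequate. Kanzler wheat leaf segments on agar receive fungal spores, then test compound (DMSO stock diluted in 0.025% Tween20 or water) 1 day later, under 19° C and 75% relative humidity.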

[2] = system: Phakopsora pachyrhizi; experiment: Phakopsora pachyrhizi / soybean / leaf disc preventative (Asian soybean rust); assay type: in vivo; details: foliar, 288 h, 200 ppm in the applied formulation, soybean leaf disks, inoculated one day after application, assessed 12 to 14 days after application, vs untreated, read-out: disease control
Summary of the method: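 Read-out is percent disease control relative to untreated check discs, assessed once untreated discs show adequate disease, 12 to 14 days after application. Compounds, tested at 200 ppm in the applied formulation, are sprayed onto soybean leaf discs one day before inoculation with a spore suspension.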

[3] = system: Puccinia recondita f. Sp. Tritici; experiment: Puccinia recondita f. sp. tritici / wheat / leaf disc preventative (brown rust); assay type: in vivo; details: foliar, 168 h, 200 ppm in the applied formulation, wheat leaf segments cv. Kanzler, preventative, inoculated 1 day after application, assessed 7 to 9 days after application, vs untreated, read-out: disease control
Summary of the method: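 Wheat cv. Kanzler leaf segments on agar were sprayed with formulated compound in water, then inoculated with spores 1 day later. Incubated at 19° C, 75% rh, 12 h light/12 h dark; percent disease control versus untreated scored 7 to 9 days after application.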

[4] = system: Glomerella Lagenarium (Colletotrichum Lagenarium); experiment: Glomerella lagenarium (Colletotrichum lagenarium) liquid culture / cucumber / preventative (anthracnose); assay type: cell-based; details: Colletotrichum orbiculare; 20 ppm in the applied formulation; liquid culture in PDB, 24° C., inhibition of growth measured photometrically 3 to 4 days after application, vs untreated; read-out: disease control
Summary of the method: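 Conidia from cryogenic storage were mixed into potato dextrose broth. This was added to compound diluted from DMSO into 0.025% Tween20, tested at 20 ppm. Plates were incubated in the dark at 24 °C and 96% relative humidity, and growth was read photometrically after 2–7 days as % activity versus untreated check.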

| SMILES | pest or weed control at 200 ppm [1] | pest or weed control at 200 ppm [2] | pest or weed control at 200 ppm [3] | inhibition of growth at 20 ppm [4] | melting point |
| --- | --- | --- | --- | --- | --- |
| O=C(Nc1ccncc1)c1cn(Cc2ccc(-c3noc(C(F)(F)F)n3)cc2)nn1 [Compound 1.283, N-(4-pyridyl)-1-[[4-[5-(trifluoromethyl)-1,2,4-oxadiazol-3-yl]phenyl]methyl]triazole-4-carboxamide] | ≥ 80% | ≥ 80% | ≥ 80% | ≥ 80% | 204 to 206 °C |
| CON(C)C(=O)c1cn(Cc2ccc(-c3noc(C(F)(F)F)n3)cc2)nn1 [Compound 1.275, N-methoxy-N-methyl-1-[[4-[5-(trifluoromethyl)-1,2,4-oxadiazol-3-yl]phenyl]methyl]triazole-4-carboxamide] | ≥ 80% | ≥ 80% | ≥ 80% | ≥ 80% | 135 to 137 °C |
| CS(=O)(=O)N1CCN(Cc2ccc(-c3noc(C(F)(F)F)n3)cc2)CC1 [Compound 1.305, 3-[4-[(4-methylsulfonyl-piperazin-1-yl)methyl]phenyl]-5-(trifluoromethyl)-1,2,4-oxadiazole] | ≥ 80% | ≥ 80% | ≥ 80% | ≥ 80% | 111.1 to 114.9 °C |
| C#CCON=Cc1cnn(Cc2ccc(-c3noc(C(F)(F)F)n3)cc2)c1 [Compound 1.290, N-prop-2-ynoxy-1-[1-[[4-[5-(trifluoromethyl)-1,2,4-oxadiazol-3-yl]phenyl]methyl]pyrazol-4-yl]methanimine] | ≥ 80% | ≥ 80% | ≥ 80% | ≥ 80% | 57 to 63 °C |
| FC(F)(F)c1nc(-c2ccc(Cn3cc(-c4ccccn4)nn3)cc2)no1 [Compound 1.22, 3-[4-[[4-(2-pyridyl)triazol-1-yl]methyl]phenyl]-5-(trifluoromethyl)-1,2,4-oxadiazole] | ≥ 80% | ≥ 80% | ≥ 80% | ≥ 80% | 160.2 to 162.4 °C |
| CC(C)Cc1cn(Cc2ccc(-c3noc(C(F)(F)F)n3)cc2)nn1 [Compound 1.26, 3-[4-[(4-isobutyltriazol-1-yl)methyl]phenyl]-5-(trifluoromethyl)-1,2,4-oxadiazole] | ≥ 80% | ≥ 80% | ≥ 80% | ≥ 80% | 113.9 to 115.7 °C |
| COC(=O)c1cnnn1Cc1ccc(-c2noc(C(F)(F)F)n2)cc1 [Compound 1.279, methyl 3-[[4-[5-(trifluoromethyl)-1,2,4-oxadiazol-3-yl]phenyl]methyl]triazole-4-carboxylate] | ≥ 80% | ≥ 80% | ≥ 80% | ≥ 80% | 103 to 107 °C |
| COC(=O)c1cn(Cc2ccc(-c3noc(C(F)(F)F)n3)cc2)nn1 [Compound 1.270, methyl 1-[[4-[5-(trifluoromethyl)-1,2,4-oxadiazol-3-yl]phenyl]methyl]triazole-4-carboxylate] | ≥ 80% | ≥ 80% | ≥ 80% | ≥ 80% | 154 to 156 °C |
| Cc1nn(Cc2ccc(-c3noc(C(F)(F)F)n3)cc2)c(C)c1C [Compound 1.146, 5-(trifluoromethyl)-3-[4-[(3,4,5-trimethylpyrazol-1-yl)methyl]phenyl]-1,2,4-oxadiazole] | ≥ 80% | ≥ 80% | ≥ 80% | ≥ 80% | 99.4 to 102 °C |
| FC(F)(F)c1nc(-c2ccc(Cn3nc4ccccc4n3)cc2)no1 [Compound 1.34, 3-[4-(benzotriazol-2-ylmethyl)phenyl]-5-(trifluoromethyl)-1,2,4-oxadiazole] | ≥ 80% | ≥ 80% | ≥ 80% | ≥ 80% | 112.4 to 116.6 °C |
| CN(C)C(=O)c1cn(Cc2ccc(-c3noc(C(F)(F)F)n3)cc2)nn1 [Compound 1.280, N,N-dimethyl-1-[[4-[5-(trifluoromethyl)-1,2,4-oxadiazol-3-yl]phenyl]methyl]triazole-4-carboxamide] | ≥ 80% | ≥ 80% | ≥ 80% | ≥ 80% | 168 to 170 °C |
| C[Si](C)(C)c1cn(Cc2ccc(-c3noc(C(F)(F)F)n3)cc2)nn1 [Compound 1.25, trimethyl-[1-[[4-[5-(trifluoromethyl)-1,2,4-oxadiazol-3-yl]phenyl]methyl]triazol-4-yl]silane] | ≥ 80% | ≥ 80% | ≥ 80% | ≥ 80% | 87.8 to 89.5 °C |
| FC(F)(F)c1nc(-c2ccc(Cn3cc(-c4cccnc4)nn3)cc2)no1 [Compound 1.23, 3-[4-[[4-(3-pyridyl)triazol-1-yl]methyl]phenyl]-5-(trifluoromethyl)-1,2,4-oxadiazole] | ≥ 80% | ≥ 80% | ≥ 80% | ≥ 80% | 159.8 to 163.1 °C |
| FC(F)(F)c1nc(-c2ccc(Cn3ccnn3)cc2)no1 [Compound 1.32, 3-[4-(triazol-1-ylmethyl)phenyl]-5-(trifluoromethyl)-1,2,4-oxadiazole] | ≥ 80% | ≥ 80% | ≥ 80% | ≥ 80% | 107.6 to 109.5 °C |
| O=Cc1cnn(Cc2ccc(-c3noc(C(F)(F)F)n3)cc2)c1 [Compound 1.273, 1-[[4-[5-(trifluoromethyl)-1,2,4-oxadiazol-3-yl]phenyl]methyl]pyrazole-4-carbaldehyde] | ≥ 80% | ≥ 80% | ≥ 80% | ≥ 80% | 91 to 96 °C |
| CC(C)(NC(=O)c1ccccc1)c1cn(Cc2ccc(-c3noc(C(F)(F)F)n3)cc2)nn1 [Compound 1.30, N-[1-methyl-1-[1-[[4-[5-(trifluoromethyl)-1,2,4-oxadiazol-3-yl]phenyl]methyl]triazol-4-yl]ethyl]benzamide] | ≥ 80% | ≥ 80% | ≥ 80% | ≥ 80% | 157.6 to 161.9 °C |
| O=C(c1cnn(Cc2ccc(-c3noc(C(F)(F)F)n3)cc2)c1)N1CCOCC1 [Compound 1.261, morpholino-[1-[[4-[5-(trifluoromethyl)-1,2,4-oxadiazol-3-yl]phenyl]methyl]pyrazol-4-yl]methanone] | ≥ 80% | ≥ 80% | ≥ 80% | ≥ 80% | 125 to 135 °C |
| CCNC(=O)c1cn(Cc2ccc(-c3noc(C(F)(F)F)n3)cc2)nn1 [Compound 1.274, N-ethyl-1-[[4-(5-(trifluoromethyl)-1,2,4-oxadiazol-3-yl]phenyl]methyl]triazole-4-carboxamide] | ≥ 80% | ≥ 80% | ≥ 80% | ≥ 80% | 193 to 195 °C |
| FC(F)(F)c1nc(-c2ccc(Cn3nnc4ccccc43)cc2)no1 [Compound 1.35, 3-[4-(benzotriazol-1-ylmethyl)phenyl]-5-(trifluoromethyl)-1,2,4-oxadiazole] | ≥ 80% | ≥ 80% | ≥ 80% | ≥ 80% | 142.3 to 143.2 °C |
| CC(C)(C)c1cn(Cc2ccc(-c3noc(C(F)(F)F)n3)cc2)nn1 [Compound 1.27, 3-[4-[(4-tert-butyltriazol-1-yl)methyl]phenyl]-5-(trifluoromethyl)-1,2,4-oxadiazole] | ≥ 80% | ≥ 80% | ≥ 80% | ≥ 80% | 90.4 to 92.3 °C |
| FC(F)(F)c1nc(-c2ccc(Cn3nccn3)cc2)no1 [Compound 1.33, 3-[4-(triazol-2-ylmethyl)phenyl]-5-(trifluoromethyl)-1,2,4-oxadiazole] | ≥ 80% | ≥ 80% | ≥ 80% | ≥ 80% | 105.4 to 107.9 °C |
